Results from patent US20020035146A1, “Antifungal compounds and compositions and antifungal use thereof” (priority 2000, published 2002).

Key:
[1] = test system: Botrytis cinerea spores; assay: Inhibition of germination of Botrytis cinerea spores (germination-associated adhesion in microtiter plates, sulforhodamine B); assay type: cell-based; conditions: B. cinerea spores in SDB, 25° C., 5.5 hours; compound 1 encapsulated in α-cyclodextrin (0.14% by weight)
Protocol: Compounds were evaluated for the ability to inhibit germination of Botrytis cinerea spores using an assay which measures the inhibition of germination-associated adhesion in microtiter plates. […] This solution was then diluted with SDB to give a solution concentration of compound 2 of 1000 ppm. Comparison compound, AVG, was dissolved in SDB at 5 mg/ml. Two-fold serial dilutions of the solutions of these compounds in SDB were made in 100 μl aliquots of SDB in 96-well microtiter plates. Spore suspension of B. cinerea (100 μl at 2×10^5 spores/ml) was added to the wells. The plates were then incubated at 25° C. for 5.5 hours at which time spores in control wells had germinated. The medium containing unbound spores was removed by inverting and flicking the microtiter plate to remove as much liquid as possible. Quantitation of the adhered spores was achieved by measuring their cellular protein content using sulforhodamine B (see Skehan et al., Journal of the National Cancer Institute, 82, 1107-1112 (1990)), measuring absorbance at 564 nm. Inhibition of adhesion was determined by comparing the absorbance value in a well containing fungicide with the absorbance in control wells without fungicide. EC50 values for germination inhibition were determined from dose-response curves.

[2] = test system: Pythium ultimum; assay type: cell-based; conditions: mycelial homogenate, 25° C., 2 days, compound encapsulated in α-cyclodextrin (0.14% by weight)
[3] = test system: Pyricularia oryzae; assay type: cell-based; conditions: spore suspension, 25° C., 5 days, compound encapsulated in α-cyclodextrin (0.14% by weight)
[4] = test system: Phytophthora capsici; assay type: cell-based; conditions: spore suspension, 25° C., 5 days, compound encapsulated in α-cyclodextrin (0.14% by weight)
[5] = test system: Rhizoctonia solani; assay type: cell-based; conditions: mycelial homogenate, 25° C., 5 days, compound encapsulated in α-cyclodextrin (0.14% by weight)
[6] = test system: Septoria nodorum; assay type: cell-based; conditions: spore suspension, 25° C., 2 days, compound encapsulated in α-cyclodextrin (0.14% by weight)
[7] = test system: Colletotrichum lagenarium; assay type: cell-based; conditions: spore suspension, 25° C., 5 days, compound encapsulated in α-cyclodextrin (0.14% by weight)
[8] = test system: Botrytis cinerea; assay: Technical material v. formulation: inhibition of fungal growth in sealed vials (sulforhodamine B); assay type: cell-based; conditions: technical material added in acetone, 16 hours
Protocol: Since compound 1 is a gas at room temperature its activity as a technical material in solution was evaluated in sealed vials with a small head space as follows. Compound 1, formulated by encapsulation in a-cyclodextrin, was also tested for comparison.
Compound 1 (technical material) was added to 21×50 mm glass vials on dry ice as the appropriate amount of a 14% (w/v) solution in acetone to provide the desired concentrations. (The acetone solutions were kept on dry ice or in a freezer at −80° C. until used.) Controls received the same volumes of acetone alone. A spore suspension (8 ml) of Botrytis cinerea at 2.5×10^4 spores/ml in two-fold diluted SDB was added to each vial. The vials were immediately sealed with polyethylene plugs and placed in a […] incubator for 16 hours. The extent of fungal growth in the vials was determined by measuring their cellular protein content using sulforhodamine B (Skehan, et al., Journal of the National Cancer Institute 82, 1107-1112 (1990)), and the percent inhibition of growth was calculated by comparing growth in the treatments with growth in the controls.
The desired amounts of Compound 1, formulated by encapsulation in α-cyclodextrin ([…]) were added to glass vials. A spore suspension (8 ml) of Botrytis cinerea at 2.5×10^4 spores/ml in two-fold diluted SDB was added to each vial, and vials processed as described above.

[9] = test system: Botrytis rot on rose petals; assay: Suppression of Botrytis rot on rose petals; assay type: in vivo; conditions: white rose petals exposed to 100 ppm in the gas phase for 90 minutes before inoculation; assessed after 10 days; two trials combined; control 66.7
Protocol: Freshly cut white roses were purchased from Zieger & Sons, Inc. rose growers. Non senescing petals were chosen to perform the experiment. Petals were placed in plastic petri dishes (100×20 mm) each containing a moist #3 Whatman filter paper with one petal per petri dish.
Compound 1, formulated as in Example 1 (0.778 g) was dissolved in 20 ml hot water in a 100 ml jar sealed with a cap. When the powder was dissolved, the jar was placed in a 4.8 liter cabinet containing three petri dishes (without the lids) with petals. The cap of the jar was quickly removed and the cabinets sealed for ninety (90) minutes. The concentration of Compound 1 in the gas phase was 100 ppm.
After exposure to Compound 1 at 100 ppm the petals were inoculated with two 20μl drops of spore suspension containing 1×10^6 spores per ml. Controls were inoculated without prior exposure to Compound 1.
Lids were placed on the petri dishes and the dishes were transferred to a plant growth chamber set at a 12 hour photoperiod, a 20° C. day temperature and 18° C. night temperature, and 70% relative humidity to allow disease development. The number of petals with sporulating lesions was determined after 10 days. Two trials were conducted with 3 petals per treatment in each trial. The combined results from the two trials were as follows: […]

| SMILES | EC50 for germination inhibition [1] [ppm] | EC50 (mycelial growth) [2] [ppm] | EC50 (mycelial growth) [3] [ppm] | EC50 (mycelial growth) [4] [ppm] | EC50 (mycelial growth) [5] [ppm] | EC50 (mycelial growth) [6] [ppm] | EC50 (mycelial growth) [7] [ppm] | % Inhibition of growth ([8]; 175 ppm) [%] | % Inhibition of growth ([8]; 350 ppm) [%] | % Inhibition of growth ([8]; 525 ppm) [%] | Petals with sporulating lesions (%) [9] [%] |
| --- | --- | --- | --- | --- | --- | --- | --- | --- | --- | --- | --- |
| CCCCCCCCC1=CC1(F)F [Compound 2, 1-n-octyl-3,3-difluorocyclopropene] | 3.3 |  |  |  |  |  |  |  |  |  |  |
| CC1=CC1 [Compound 1, 1-methylcyclopropene] | 37 | 2.6 | 6.7 | 6.9 | 7.4 | 22.5 | >70 | 30.1 | 99.4 | 99.8 | 16.7 |
